# Laboratory results reported in publication PMC6160541 (Frontiers in Chemistry, 2018).
# Where two headings read alike, the source gives them in different places.
# Experiments:
# HepG-2 = test: MTT cytotoxicity assay, HepG-2; assay type: cell-based, human; details: 48 h
# Method: (§1) We evaluated the cytotoxicity of 1c-6c, 1d-7d and of the positive control 1a-5a against a panel of human cancer cells using MTT (3-(4,5-dimethylthiazol-2-yl)-2,5-diphenyltetrazolium bromide) assay. The IC50 values were calculated based on three parallel experiments.
# (§2) Cisplatin and oxaliplatin were purchased from Yurui Chemical Co. Ltd. (Shanghai, China). All of the other chemicals were obtained from commercial suppliers, such as Alfa […]
# (§3) IonSpec QFT mass spectrometer with ESI ionization. 3-(4,5-dimethylthiazol-2-yl) […]
# (§4) Phosphate-buffered saline (PBS) contains 137 mM
# (§5) NaCl, 2.7 mM KCl, 10 mM Na2HPO4 and 2 mM KH2PO4. Fetal bovine serum (FBS), 0.25% trypsin/EDTA solution, and penicillin-streptomycin solution were purchased from […]
# (§6) Invitrogen (Grand Island, NY, USA). […]
# (§7) HeLa (cervical carcinoma cell line), MCF-7 (breast gland adenocarcinoma), LNCaP and PC3 (prostatic cancer), HepG-2 (hepatocellular carcinoma), A549 and A549R (lung carcinoma) were used for the MTT […]
# (§8) In Vitro Cellular Cytotoxicity Assays
# (§9) Cells seeded in 96-well plates were incubated in a 5% CO2 atmosphere in 100 µL of complete medium at 37 ℃ for 24 h. Then, 100 µL of freshly prepared culture medium containing drugs at different concentrations was added and incubated for another 48 h.
# (§10) MTT (5 mg/mL, 20 µL) was added and incubated for 3 h. Finally, the medium was removed, and DMSO (150 µL) was added. The absorbance was measured at 570 nm using a Bio-Rad 680 microplate reader. The IC50 values were calculated using GraphPad […]
# (§11) Prism software. […]
# MCF-7 = test: MTT cytotoxicity assay, MCF-7; assay type: cell-based, human; details: 48 h
# Method: as §1, §2, §3, §4, §5, §6, §7, §8, §9, §10, §11
# HeLa = test: MTT cytotoxicity assay, HeLa; assay type: cell-based, human; details: 48 h
# Method: as §1, §2, §3, §4, §5, §6, §7, §8, §9, §10, §11
# A549R = test: MTT cytotoxicity assay, A549R (cisplatin-resistant); assay type: cell-based, human; details: for IC50: MTT, 48 h
# Method: as §1, §2, §3, §4, §5, §6, §7, §8, §9, §10, §11
# A549 = test: MTT cytotoxicity assay, A549; assay type: cell-based, human; details: 48 h
# Method: as §1, §2, §3, §4, §5, §6, §7, §8, §9, §10, §11
# LNCaP = test: MTT cytotoxicity assay, LNCaP; assay type: cell-based, human; details: 48 h
# Method: as §1, §2, §3, §4, §5, §6, §7, §8, §9, §10, §11
# PC3 = test: MTT cytotoxicity assay, PC3; assay type: cell-based, human; details: 48 h
# Method: as §1, §2, §3, §4, §5, §6, §7, §8, §9, §10, §11
# MCF-7 cells = test: MTT cytotoxicity with GLUT1 inhibitors (EDG, phloretin) and OCT2 inhibitor (Ctd.) in MCF-7 cells; assay type: cell-based, human; details: for effect of EDG and phloretin on IC50 values: MCF-7
# Method: For cytotoxicity assays, the GLUT1 inhibitors EDG (1) and phloretin (2), the OCT2 inhibitor Ctd. (cimetidine) (3), and the mixture of EDG and Ctd.(4) were selected to undergo a similar procedure as antitumor activity in vitro. MCF-7 cells were seeded on a 96 well plate in 100 μL of RPMI and were incubated for 24 h at 37°C, and EDG-containing RPMI medium, phloretin-containing RPMI medium and Ctd.-containing RPMI medium were used to render the serial dilution of the concentrated solutions of the platinum compounds, and 100 μL/well was added (resulting in final inhibitor concentrations of 75 mM, 100 μM and 3 mM). The cytotoxicity profiles of the compounds were evaluated using MTT assay. […]
# as §8, §9
# as §10, with “GraphPad Prism software. Technical repetitions and independent experiments were based on three” for “GraphPad”
# For cytotoxicity assays using the GLUT1 inhibitor 4,6-O-ethylidene-α-D-glucose (EDG), phloretin and the OCT2 inhibitor Ctd., a similar procedure as described above was followed except that MCF-7 cells (3500 cells/well) were seeded on a 96 well plate in 100 µL of RPMI and incubated for 24 h at 37 °C. EDG, phloretin and Ctd. containing RPMI medium were used for serial dilution of the concentrated solutions of the platinum compounds, and 100 µL/well were added (resulting in final inhibitor concentrations of 75 mM, 100 µM and 3 mM, respectively). The cytotoxicity profiles of the compounds were evaluated using the MTT assay. […]
# human cancer cells = test: MTT cytotoxicity, summary over panel of human cancer cells; assay type: cell-based; details: range over A549R, LnCaP, PC3
# Method: as §1
# (§12) Scheme 9. Synthetic route of 38b. Conditions and reagents: (a) Ac2O and NaOAc; (b) TMSN3, BF3OEt2, and DCM; (c) MeONa and MeOH rt overnight; (d) BnBr, NaH, and DMF overnight; (e) […]
# (§13) Preparation of 46b and 47b
# (§14) Compounds 46b (38%) and 47b (45%) were prepared according to the procedure described for compounds 20b and 21b, respectively.
# (§15) Compound 48b (45%) was prepared according to the procedure described for compound […]
# In Vitro Cellular Cytotoxicity Assays […]
# (§16) MTT (5 mg/mL, 20 µL) was added and incubated for 3 h. […] The absorbance was measured at 570 nm using a Bio-Rad 680 microplate reader. The IC50 values were calculated using GraphPad Prism software. […]
# (§17) For cytotoxicity assays using the GLUT1 inhibitor 4,6-O-ethylidene-α-D-glucose (EDG), phloretin and the OCT2 inhibitor Ctd., a similar procedure as described above was followed except that MCF-7 cells (3500 cells/well) were seeded on a 96 well plate in 100 µL of RPMI and incubated for 24 h at 37 °C. […] The cytotoxicity profiles of the compounds were evaluated using the MTT assay. […]
# 293T = test: Viability of normal cells 293T, 48 h incubation assay; assay type: cell-based
# Method: (§18) An ideal anticancer compound should be selective for cancer cells over normal healthy cells, thereby mitigating the undesired toxic side effects associated with chemotherapy.
# as §12, §13, §14, §15, §8
# (§19) Cells seeded in 96-well plates were incubated in a 5% CO2 atmosphere in 100 µL of complete medium at 37 ℃ for 24 h. […]
# as §16, §17
# 3T3 = test: Viability of normal cells 3T3, 48 h incubation assay; assay type: cell-based
# Method: as §18, §12, §13, §14, §15, §8, §19, §16, §17
# [1] = Stability in whole human blood; assay type: in vitro ADME
# From the text: (§20) One of the advantages of inert Pt(IV) prodrugs is their enhanced stability in RPMI 1640 and whole human blood.
# Stability in RPMI 1640 = assay type: physicochemical
# From the text: as §20
SMILES,IC50 (HepG-2),IC50 (MCF-7),IC50 (HeLa),IC50 (A549R),IC50 (A549),IC50 (LNCaP),IC50 (PC3),RF: Resistance factor = IC50(A549R)/IC50(A549) (A549R),other results
CC(=O)OC[C@H]1O[C@H](NC(=O)CCC(=O)[O][Pt-2]23([OH])([NH2+][C@@H]4CCCC[C@H]4[NH2+]2)[O]C(=O)C(=O)[O]3)[C@@H](OC(C)=O)[C@@H](OC(C)=O)[C@@H]1OC(C)=O [6c],50.9 ± 1.46 µM,20.8 ± 0.45 µM,16.8 ± 0.45 µM,> 100 µM,23.8 ± 0.78 µM,20.1 ± 1.78 µM,7.06 ± 0.56 µM,–,–
"N.N.[Cl][Pt][Cl] [1a, cisplatin, reference compound]",3.94 ± 0.39 µM,2.28 ± 0.56 µM,0.8 ± 0.93 µM,35.8 ± 1.69 µM,10.8 ± 1.98 µM,23.8 ± 0.89 µM,22.9 ± 1.45 µM,–,effect of EDG and phloretin on IC50 values (MCF-7 cells): not greatly different; IC50 (human cancer cells): 16.8 to 39.7 µM
"N.N.[Cl-].[Cl-].[OH-].[OH-].[Pt+4] [2a, reference compound]",50 ± 1.79 µM,27 ± 0.34 µM,11.4 ± 1.56 µM,13.4 ± 2.57 µM,> 100 µM,50.8 ± 0.79 µM,61.4 ± 0.67 µM,–,–
N.N.O=C(CCC(=O)[O][Pt]([OH])([Cl])[Cl])NCCO[C@H]1O[C@H](CO)[C@@H](O)[C@H](O)[C@@H]1O [3d],13.2 ± 1.38 µM,45.1 ± 0.77 µM,3.01 ± 0.67 µM,> 100 µM,1.9 ± 2.78 µM,> 100 µM,> 100 µM,–,–
CC(=O)OC[C@H]1O[C@@H](O[C@H]2[C@H](OC(C)=O)[C@@H](OC(C)=O)[C@H](NC(=O)CCC(=O)[O][Pt-2]([NH3+])([NH3+])([OH])([Cl])[Cl])O[C@@H]2COC(C)=O)[C@H](OC(C)=O)[C@@H](OC(C)=O)[C@H]1OC(C)=O [1c],11.6 ± 1.58 µM,24.2 ± 1.44 µM,18.2 ± 1.01 µM,4.26 ± 1.9 µM,36.4 ± 1.39 µM,> 100 µM,> 100 µM,0.12,–
"O=C1[O][Pt]2([NH][C@@H]3CCCC[C@H]3[NH]2)[O]C1=O [3a, oxaliplatin, reference compound]",6.64 ± 1.79 µM,5.22 ± 2.78 µM,3.96 ± 0.75 µM,39.7 ± 0.69 µM,10.1 ± 1.2 µM,16.8 ± 0.34 µM,39.7 ± 0.76 µM,3.94,effect of EDG and phloretin on IC50 values (MCF-7 cells): not greatly different; IC50 (human cancer cells): 16.8 to 39.7 µM
CC(=O)OC[C@H]1O[C@@H](NC(=O)CCC(=O)[O][Pt-2]([NH3+])([NH3+])([OH])([Cl])[Cl])[C@H](OC(C)=O)[C@@H](OC(C)=O)[C@@H]1O[C@H]1O[C@H](COC(C)=O)[C@@H](OC(C)=O)[C@H](OC(C)=O)[C@H]1OC(C)=O [3c],3.27 ± 1.67 µM,27.2 ± 1.56 µM,0.91 ± 0.54 µM,14.6 ± 1.78 µM,3.38 ± 1.49 µM,> 100 µM,1.13 ± 0.45 µM,4.33,–
"NC1CCCCC1N.O=C1[O][Pt]([OH])([OH])[O]C1=O [4a, reference compound]",> 100 µM,> 100 µM,15.8 ± 0.34 µM,29.7 ± 0.64 µM,> 100 µM,23 ± 0.89 µM,> 100 µM,–,–
CC(=O)OC[C@H]1O[C@@H](NC(=O)CCC(=O)[O][Pt-2]23([OH])([NH2+][C@@H]4CCCC[C@H]4[NH2+]2)[O]C(=O)C(=O)[O]3)[C@H](OC(C)=O)[C@@H](OC(C)=O)[C@H]1OC(C)=O [5c],> 100 µM,17.89 ± 0.12 µM,32.2 ± 0.34 µM,74.1 ± 1.67 µM,17.5 ± 0.89 µM,22.1 ± 1.45 µM,7.45 ± 0.56 µM,4.24,–
O=C(CCC(=O)[O][Pt-2]12([OH])([NH2+][C@@H]3CCCC[C@H]3[NH2+]1)[O]C(=O)C(=O)[O]2)NC[C@H]1OC(O)[C@H](O)[C@@H](O)[C@@H]1O (stereo partly shown) [6d],4.1 ± 1.46 µM,0.89 ± 1.34 µM,2.88 ± 0.67 µM,47 ± 1.69 µM,29.9 ± 1.78 µM,20 ± 0.79 µM,66.6 ± 1.45 µM,–,"IC50 (293T): 12.1 µM; IC50 (3T3): > 100 µM; IC50 with EDG, folds higher than 48 h IC50 (MCF-7 cells; MCF-7, EDG): 36 fold; IC50 with mixture of EDG and Ctd., folds higher than 48 h IC50 (MCF-7 cells; MCF-7, EDG + Ctd.): 95 fold; IC50 (MCF-7 cells; MCF-7, GLUT1 inhibitor EDG 75 mM, read-out: IC50 with EDG): 31.8 µM; IC50 (MCF-7 cells; MCF-7, GLUT1 inhibitor phloretin 100 μM, read-out: IC50 with phloretin): 38.7 µM; IC50 with Ctd., folds higher than 48 h IC50 (MCF-7 cells; MCF-7, OCT2 inhibitor Ctd. 3 mM): 82 fold; IC50 with phloretin, folds higher than 48 h IC50 (MCF-7 cells; MCF-7, phloretin): 44 fold; t1/2 in whole human blood [1]: ~2.5 h; half-life (Stability in RPMI 1640; RPMI 1640): up to 170 h; remained unchanged (Stability in RPMI 1640; RPMI 1640, after 48 h): 66%; decomposition (Stability in RPMI 1640; RPMI medium, up to 12 h): No significant decomposition"
CC(=O)OC[C@H]1O[C@@H](O[C@H]2[C@H](OC(C)=O)[C@@H](OC(C)=O)[C@H](NC(=O)CCC(=O)[O][Pt-2]34([OH])([NH2+][C@@H]5CCCC[C@H]5[NH2+]3)[O]C(=O)C(=O)[O]4)O[C@@H]2COC(C)=O)[C@H](OC(C)=O)[C@@H](OC(C)=O)[C@H]1OC(C)=O [2c],59.3 ± 1.49 µM,8.29 ± 1.87 µM,4.05 ± 0.87 µM,8.37 ± 1.9 µM,14.5 ± 1.47 µM,4.7 ± 0.89 µM,> 100 µM,0.58,–
CC(=O)OC[C@H]1O[C@@H](NC(=O)CCC(=O)[O][Pt-2]23([OH])([NH2+][C@@H]4CCCC[C@H]4[NH2+]2)[O]C(=O)C(=O)[O]3)[C@H](OC(C)=O)[C@@H](OC(C)=O)[C@@H]1O[C@H]1O[C@H](COC(C)=O)[C@@H](OC(C)=O)[C@H](OC(C)=O)[C@H]1OC(C)=O [4c],10.7 ± 1.49 µM,7.21 ± 0.78 µM,> 100 µM,25.2 ± 1.79 µM,14.3 ± 1.48 µM,> 100 µM,22.9 ± 0.78 µM,–,–
O=C(CCC(=O)[O][Pt-2]12([OH])([NH2+][C@@H]3CCCC[C@H]3[NH2+]1)[O]C(=O)C(=O)[O]2)NCCCO[C@@H]1O[C@H](CO)[C@H](O)[C@H](O)[C@H]1O [5d],1.77 ± 1.39 µM,0.35 µM,0.58 ± 0.78 µM,5.67 ± 1.69 µM,2.29 ± 1.78 µM,12 ± 0.79 µM,6.27 ± 1.45 µM,–,–
